From patent US20130266557A1, “METHODS FOR TREATMENT OF A SARCOMA USING AN EPIMETABOLIC SHIFTER (COENZYME Q10)” (priority 2009, published 2013)

Tested on: NCIES0808 cells
Experiment: Two-dimensional gel analysis with MS identification
Assay type: cell-based, human
Details: − = down, 1 = no change; for Spot 154, Translin-associated factor X: modulation vs control media / Spot 240, Proteasome 26S subunit 13; Endophilin B1: modulation vs control media / Spot 284, Proteasome 26S subunit: modulation vs control media / Spot 583, hnRNP C1/C2: modulation vs control media / Spot 612, Myosin Regulatory Light Chain: modulation vs control media / Spot 667, Dismutase Cu/Zn Superoxide: modulation vs control media / Spot 685, hnRNP C1/C2: modulation vs control media / Spot 746, Actin-like 6A; Eukaryotic Initiation Factor 4All: modulation vs control media / Spot 938, Nuclear Chloride Channel protein: modulation vs control media / Spot 940, Ubiquilin 1; Phosphatase 2A: modulation vs control media: 3 hours; for Spot 452, acid phosphatase 1: modulation vs control media / Spot 477, diazepam binding inhibitor: modulation vs control media / Spot 530, ribosomal protein SA: modulation vs control media / Spot 652, proteasome beta 3: modulation vs control media / Spot 720, dCTP pyrophosphatase 1: modulation vs control media / Spot 773, proteasome beta 4: modulation vs control media / Spot 1057, Arsenite translocating ATPase; Spermine synthetase: modulation vs control media: 6 hours
Procedure: NCIES0808 cells were plated in T25 flasks in experimental conditions similar to those described in the PCR array section. At the end of the treatment time, cells were trypsinized as described in the PCR array section and washed twice in ice cold TBS and snap frozen in liquid nitrogen. Further processing for Western blots was carried out at UMass.
Before isoelectric focusing (IEF), samples were solubilized in 40 mM Tris, 7 M urea, 2 M thiourea, and 1% C7 zwitterionic detergent, reduced with tributylphosphine, and alkylated with 10 mM acrylamide for 90 min at room temperature. After the sample was run through a 10-kDa cutoff Amicon Ultra device with at least 3 volumes of the resuspension buffer, consisting of 7 M urea, 2 M thiourea, and 2% CHAPS to reduce the conductivity of the sample. One hundred micrograms of protein were subjected to IEF on 11-cm pH 3 to 10, pH 4 to 7 or pH 6 to 11 immobilized pH gradient strips (GE, Amersham, USA) to 100,000 volts hour. After IEF, immobilized pH gradient strips were equilibrated in 6 M urea, 2% SDS, 50 mM Tris-acetate buffer, pH 7.0, and 0.01% bromphenol blue and subjected to SDS-polyacrylamide gel electrophoresis on 8 to 16% Tris-HCl Precast Gel, 1 mm (Bio-Rad, USA). The gels were run in duplicate. They were fixed, stained in SYPRO Ruby, 80 mL/gel (Invitrogen, USA) and imaged on Fuji FLA-5100 laser scanner.
Analysis of all gel images was performed using Progenesis Discovery and Pro (Nonlinear Dynamics Inc., Newcastle upon Tyne, UK). After spot detection, matching, background subtraction, normalization, and filtering, data for SYPRO Ruby gel images was exported. […] Manual annotation of each statistically significant spots was performed to assure accurate detection.
Tryptic peptides extracted from respective gel plugs were dried down to a 10 ul volume and acidified with 1-2 ul of 1% TFA. Samples were loaded on an uC18 Zip Tip (Millipore, Corp) after pre-equilibration in 0.1% TFA. After washing with 2×10 ul aliquots of 0.1% TFA, samples were deposited directly onto the MALDI sample target using 1 ul of Matrix solution 15 mg/ml of 2,5 Dihydroxybenzoic Acid (MassPrep DHB, Waters Corp.) in 50:50 Acetonitrile: 0.1% TFA. Samples were allowed to air dry prior to insertion into the mass spectrometer. Analysis were performed on a Kratos Axima QIT (Shimadzu Instruments) matrix-assisted-laser desorption/ionization (MALDI) mass spectrometer. Peptides were analyzed in positive ion mode in mid mass range (700-3000 Da). The instrument was externally calibrated with Angiotensin II (1046.54), P14R (1533.86) and ACTH (18-39) 2465.20 Da. Precursors were selected based on signal intensity at a mass resolution width of 250 for CID fragmentation using Argon as the collision gas. Database searches were performed in house with Mascot (Matrix Sciences, Ltd.) using the Peptide Mass Fingerprint program for MS data and the MS/MS Ion Search program for CID data. All identifications were confirmed or established with CID (MS/MS) data.
NCIES0808 cells treated for 3, 6 and 24 hours were subjected to 2-D gel electrophoreses and were analyzed to identify protein-level changes relative to the control media samples. A comparative analysis of spots across multiple duplicated gels was performed, comparing the “control media sample” against all of the treated samples at both the 50 uM and 100 uM doses. The analysis included the identification of spot changes over the time course due to an increase, decrease, or post-translational modification.

Coenzyme Q10 [CoQ10]
Spot 154, Translin-associated factor X: modulation vs control media (50 uM Q10): 1
Spot 240, Proteasome 26S subunit 13; Endophilin B1: modulation vs control media (50 uM Q10): −1.3
Spot 284, Proteasome 26S subunit: modulation vs control media (50 uM Q10): −1.1
Spot 583, hnRNP C1/C2: modulation vs control media (50 uM Q10): 1.4
Spot 612, Myosin Regulatory Light Chain: modulation vs control media (50 uM Q10): 1.4
Spot 667, Dismutase Cu/Zn Superoxide: modulation vs control media (50 uM Q10): −1.1
Spot 685, hnRNP C1/C2: modulation vs control media (50 uM Q10): 1.2
Spot 746, Actin-like 6A; Eukaryotic Initiation Factor 4All: modulation vs control media (50 uM Q10): −1.3
Spot 938, Nuclear Chloride Channel protein: modulation vs control media (50 uM Q10): −1.2
Spot 940, Ubiquilin 1; Phosphatase 2A: modulation vs control media (50 uM Q10): 1
Spot 154, Translin-associated factor X: modulation vs control media (100 uM Q10): −1.9
Spot 240, Proteasome 26S subunit 13; Endophilin B1: modulation vs control media (100 uM Q10): 1.5
Spot 284, Proteasome 26S subunit: modulation vs control media (100 uM Q10): −1.6
Spot 583, hnRNP C1/C2: modulation vs control media (100 uM Q10): 1.5
Spot 612, Myosin Regulatory Light Chain: modulation vs control media (100 uM Q10): 1.4
Spot 667, Dismutase Cu/Zn Superoxide: modulation vs control media (100 uM Q10): −1.4
Spot 685, hnRNP C1/C2: modulation vs control media (100 uM Q10): 1.2
Spot 746, Actin-like 6A; Eukaryotic Initiation Factor 4All: modulation vs control media (100 uM Q10): −1.2
Spot 938, Nuclear Chloride Channel protein: modulation vs control media (100 uM Q10): −1.2
Spot 940, Ubiquilin 1; Phosphatase 2A: modulation vs control media (100 uM Q10): 1.3
Spot 452, acid phosphatase 1: modulation vs control media (50 uM Q10): −1.3
Spot 477, diazepam binding inhibitor: modulation vs control media (50 uM Q10): −1.4
Spot 530, ribosomal protein SA: modulation vs control media (50 uM Q10): −1.2
Spot 652, proteasome beta 3: modulation vs control media (50 uM Q10): −1.1
Spot 720, dCTP pyrophosphatase 1: modulation vs control media (50 uM Q10): −1.2
Spot 773, proteasome beta 4: modulation vs control media (50 uM Q10): −1.1
Spot 1057, Arsenite translocating ATPase; Spermine synthetase: modulation vs control media (50 uM Q10): −1.1
Spot 452, acid phosphatase 1: modulation vs control media (100 uM Q10): −1.5
Spot 477, diazepam binding inhibitor: modulation vs control media (100 uM Q10): −1.2
Spot 530, ribosomal protein SA: modulation vs control media (100 uM Q10): −1.4
Spot 652, proteasome beta 3: modulation vs control media (100 uM Q10): −1.3
Spot 720, dCTP pyrophosphatase 1: modulation vs control media (100 uM Q10): −1.2
Spot 773, proteasome beta 4: modulation vs control media (100 uM Q10): −1.2
Spot 1057, Arsenite translocating ATPase; Spermine synthetase: modulation vs control media (100 uM Q10): −1.2
Spot 16, alpha 2-HS glycoprotein (Bos Taurus, cow): modulation vs control media (24 hours, 50 uM Q10): 1.4
Spot 130, ribosomal proten P2; histone H2A: modulation vs control media (24 hours, 50 uM Q10): −1.3
Spot 180, beta actin: modulation vs control media (24 hours, 50 uM Q10): 1.3
Spot 234, hnRNP C1/C2: modulation vs control media (24 hours, 50 uM Q10): −1.2
Spot 244, heat shock protein 70 kD: modulation vs control media (24 hours, 50 uM Q10): 1.1
Spot 275, microtubule associated protein: modulation vs control media (24 hours, 50 uM Q10): 1.1
Spot 311, beta tubulin: modulation vs control media (24 hours, 50 uM Q10): 1.7
Spot 314, proteasome alpha 3: modulation vs control media (24 hours, 50 uM Q10): 1.1
Spot 363, ATP dependent helicase II: modulation vs control media (24 hours, 50 uM Q10): 1.2
Spot 369, eukaryotic translation elongation factor 1 delta: modulation vs control media (24 hours, 50 uM Q10): 1.1
